Test results as given in patent US20190106747A1, “DRUGS, PHARMACOGENOMICS AND BIOMARKERS FOR ACIVE LONGEVITY” (Indiana University Research and Technology Corporation, priority 2016, published 2019).

How the values were obtained:
[1] = system: C. elegans; experiment: Survival after paraquat (oxidative stress) in Mianserin-treated C. elegans; assay type: in vivo; conditions: three independent alleles (e362, e1197, e1260) of ANK3/unc-44; 50 μM Mianserin from day 1 adult, paraquat five days later
Description: FIG. 4A are graphs depicting Mianserin-induced protection from oxidative stress requires ANK3/unc-44, the C. elegans homolog of mammalian ANK3. Wild-type (wt) N2 strain (dotted lines) or ANK3/unc-44 mutants (bold lines), at day 1 adult stage, were treated with water (black) or 50 μM Mianserin (red), followed by increasing concentrations of paraquat five days later. Survival of animals was determined 24 h after paraquat addition and plotted in [%] (Y-axis) as a function of paraquat concentration [mM] (X-axis). Parallel wt (N2) control experiments (dotted lines) are shown for each graph. […] All error bars show S.E.M for 3 to 4 independent experiments.

[2] = system: C. elegans; experiment: Lifespan of C. elegans treated with Mianserin; assay type: in vivo; conditions: for increase in lifespan: 50 μM Mianserin vs water
Description: FIG. 4B is a graph depicting lifespan curves of wt and unc-44(e362) animals treated with water or 50 μM Mianserin. […] (Y-axis) as a function of time [days] (X-axis). Dotted lines represent wt (N2) animals and bold lines represent unc-44(e362) mutants. Black: solvent control; red: Mianserin 50 μM. […] Asterisks indicate P values (**; P<0.01, ***P<0.001).
FIG. 4C is a graph depicting mean increase in lifespan [%] (Y-axis) as a function of Mianserin concentration [μM] (X-axis). Solid red line represents unc-44(e362) animals. Dotted red line represents the parallel control experiment of Mianserin-treated wt (N2) animals. Error bars show standard deviation for experimental replicates.

[3] = target: T1, PLA2G6 (Homo sapiens, UniProt O60733); conditions: existing drug targeting top longevity biomarker; cited from earlier work
T1 sequence (O60733 1-806): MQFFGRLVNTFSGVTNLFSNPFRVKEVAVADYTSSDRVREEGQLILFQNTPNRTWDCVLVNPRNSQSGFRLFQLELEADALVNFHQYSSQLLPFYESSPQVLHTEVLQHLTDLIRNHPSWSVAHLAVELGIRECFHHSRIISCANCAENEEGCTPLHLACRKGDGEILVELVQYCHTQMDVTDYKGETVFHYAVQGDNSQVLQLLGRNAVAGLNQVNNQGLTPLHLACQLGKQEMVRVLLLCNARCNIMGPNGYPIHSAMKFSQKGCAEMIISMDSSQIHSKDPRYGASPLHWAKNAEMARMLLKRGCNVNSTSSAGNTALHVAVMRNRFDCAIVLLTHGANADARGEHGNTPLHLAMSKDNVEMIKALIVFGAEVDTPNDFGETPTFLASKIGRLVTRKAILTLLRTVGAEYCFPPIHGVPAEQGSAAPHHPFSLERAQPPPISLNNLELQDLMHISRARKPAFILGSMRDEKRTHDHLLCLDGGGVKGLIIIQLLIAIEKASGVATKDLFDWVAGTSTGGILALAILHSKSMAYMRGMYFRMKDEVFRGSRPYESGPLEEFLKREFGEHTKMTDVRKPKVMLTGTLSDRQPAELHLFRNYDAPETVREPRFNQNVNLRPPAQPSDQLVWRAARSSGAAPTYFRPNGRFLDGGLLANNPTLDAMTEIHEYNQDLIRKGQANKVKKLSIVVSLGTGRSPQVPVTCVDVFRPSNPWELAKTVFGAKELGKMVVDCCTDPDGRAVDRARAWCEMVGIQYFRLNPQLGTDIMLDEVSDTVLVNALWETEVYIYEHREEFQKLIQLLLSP

[4] = system: POLH; conditions: Table 4 universal biomarkers; longevity direction of change I; cited from earlier work
[5] = system: ANK3; conditions: amygdala of a mouse model of mood disorders and stress; previous work; cited from earlier work
[6] = system: NAV1; conditions: Table 4 universal biomarkers; longevity direction of change D; cited from earlier work
[7] = system: worms; conditions: direct prior experimental evidence; cited from earlier work
[8] = target: ABCC1 (Homo sapiens, UniProt P33527); conditions: existing drug targeting top longevity biomarker; cited from earlier work
[9] = system: MME; conditions: Table 5 biomarkers in males; longevity direction of change D; cited from earlier work

ABCC1, sequence (P33527 whole entry): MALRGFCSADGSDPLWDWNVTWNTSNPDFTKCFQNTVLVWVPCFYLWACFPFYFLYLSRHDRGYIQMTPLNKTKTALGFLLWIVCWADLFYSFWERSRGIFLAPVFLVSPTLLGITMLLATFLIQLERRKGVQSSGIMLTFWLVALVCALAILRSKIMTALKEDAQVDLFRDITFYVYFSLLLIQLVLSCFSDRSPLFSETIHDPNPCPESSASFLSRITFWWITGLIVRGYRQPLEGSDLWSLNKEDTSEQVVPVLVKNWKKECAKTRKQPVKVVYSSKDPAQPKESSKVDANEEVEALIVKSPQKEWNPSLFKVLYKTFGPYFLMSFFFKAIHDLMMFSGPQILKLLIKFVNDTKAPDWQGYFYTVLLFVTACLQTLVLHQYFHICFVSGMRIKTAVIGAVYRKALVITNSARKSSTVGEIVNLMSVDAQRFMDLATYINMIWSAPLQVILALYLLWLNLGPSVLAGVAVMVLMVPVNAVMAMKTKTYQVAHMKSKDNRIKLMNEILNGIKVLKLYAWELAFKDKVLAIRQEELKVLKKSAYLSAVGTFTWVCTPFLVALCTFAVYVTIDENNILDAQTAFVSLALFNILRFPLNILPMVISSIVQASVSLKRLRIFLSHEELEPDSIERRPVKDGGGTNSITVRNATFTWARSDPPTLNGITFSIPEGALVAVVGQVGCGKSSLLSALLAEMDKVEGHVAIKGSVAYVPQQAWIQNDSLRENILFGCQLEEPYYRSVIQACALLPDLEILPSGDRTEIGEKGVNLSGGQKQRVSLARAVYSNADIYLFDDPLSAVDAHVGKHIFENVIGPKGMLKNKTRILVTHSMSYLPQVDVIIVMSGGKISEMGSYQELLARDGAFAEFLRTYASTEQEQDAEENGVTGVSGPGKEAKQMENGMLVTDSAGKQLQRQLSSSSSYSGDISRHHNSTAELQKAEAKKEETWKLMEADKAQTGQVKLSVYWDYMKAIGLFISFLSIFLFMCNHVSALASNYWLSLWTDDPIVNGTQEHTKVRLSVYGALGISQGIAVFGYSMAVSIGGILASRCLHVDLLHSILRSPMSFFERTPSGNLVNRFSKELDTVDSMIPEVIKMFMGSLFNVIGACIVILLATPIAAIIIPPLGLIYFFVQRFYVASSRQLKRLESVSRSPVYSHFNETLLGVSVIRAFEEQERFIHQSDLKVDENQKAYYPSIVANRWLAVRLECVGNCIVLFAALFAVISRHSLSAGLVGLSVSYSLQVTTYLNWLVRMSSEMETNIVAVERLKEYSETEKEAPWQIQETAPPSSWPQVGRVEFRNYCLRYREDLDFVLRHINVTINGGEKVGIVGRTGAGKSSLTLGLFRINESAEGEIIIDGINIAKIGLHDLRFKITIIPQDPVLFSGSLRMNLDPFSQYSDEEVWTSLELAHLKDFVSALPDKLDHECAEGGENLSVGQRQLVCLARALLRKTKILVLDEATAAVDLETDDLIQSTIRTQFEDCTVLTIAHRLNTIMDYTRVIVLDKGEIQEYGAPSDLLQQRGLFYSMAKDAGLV

With `CN1CCN2c3ccccc3Cc3ccccc3C2C1` (racemic) [Mianserin, (±)-2-methyl-1,2,3,4,10,14b-hexahydrodibenzo[c,f]pyrazino[1,2-a]azepine] as the compound, how does the “resistance to oxidative stress (survival 24 h after paraquat)” value [1] read?
Its value is “failed to increase resistance to oxidative stress”.

And the “lifespan extension as a function of Mianserin concentration” value ([2]; ANK3/unc-44(e362) mutants, any Mianserin concentration)?
The value was “No lifespan extension”.

And the increase in lifespan ([2]; unc-44(e362) mutant animals)?
The increase in lifespan was −9%.

What about the increase in lifespan ([2]; wild-type (N2) animals) of the same compound?
Its increase in lifespan is “+40%”.

With `CCN(CC)CCCC(C)Nc1c2ccc(Cl)cc2nc2ccc(OC)cc12` (racemic) [quinacrine, (RS)—N′-(6-Chloro-2-methoxy-acridin-9-yl)-N,N-diethylpentane-1,4-diamine] as the compound, how does the “effect on PLA2G6” value [3] read?
The value was “inhibiting”.

For `NC(=O)N1c2ccccc2C=Cc2ccccc21` [Carbamazepine], which “POLH modulated by drug in the same direction as longevity” value [4] is on record?
Its value is “Carbamazepine”.

With `CC/C=C\C/C=C\C/C=C\C/C=C\C/C=C\C/C=C\CCC(=O)O` [DHA] as the compound, how does the ANK3 expression [5] read?
The ANK3 expression was “decreased”.

Which “NAV1 modulated by drug in the same direction as longevity” value [6] does the source give for `COc1ccc(C(CN(C)C)C2(O)CCCCC2)cc1` (centres unmarked) [Venlafaxine] here?
The value was “Venlafaxine”.

Which lifespan [7] does the source give for `C[C@]12CC[C@@H]3c4ccc(O)cc4CC[C@H]3[C@@H]1CC[C@@H]2O` [estradiol, (8R,9S,13S,14S,17S)-13-methyl-6,7,8,9,11,12,14,15,16,17-decahydrocyclopenta[a]phenanthrene-3,17-diol] here?
The lifespan was “extending lifespan”.

Which “effect on ABCC1” value [8] does the source give for `O=C1C(CC[S+]([O-])c2ccccc2)C(=O)N(c2ccccc2)N1c1ccccc1` (centres unmarked) [sulfinpyrazone, 1,2-diphenyl-4-[2-(phenylsulfinyl)ethyl]pyrazolidine-3,5-dione] here?
The value was “inhibiting”.

With sacubitril/valsartan as the compound, how does the “MME modulated by drug in the same direction as longevity” value [9] read?
Its value is “sacubitril/”.
